pIC50: −log10 of the molar value.

This test deals with HDAC (HeLa nuclear extract, rich in HDAC activity). Description: HDAC AK-501 colorimetric (Color de Lys) inhibition assay with HeLa nuclear extract. The class given is biochemical, human. Conditions: Color de Lys substrate 0.2 mM final, 20 minutes at 37° C., reading at 405 nm, from straight line of 5 concentrations. As to the method: The inhibitory activity of the compounds obtained in the previous Examples 1, 2, 3 and 5 was evaluated, for which the HDAC AK-501 colorimetric titration kit for inhibition, supplied by Biomol, was used, following the indicated protocol.
The process of the assay was carried out in two steps. In the first step, the Color de Lys® substrate, containing an acetylated lysine group, was incubated with a sample of HeLa (human cervical cancer cell line) nuclear extract, rich in HDAC activity. In the second step, the previous mixture was treated with the Color de Lys® developer, which caused an increase in the quantifiable color intensity at 405 nm. There is a linear correlation between the absorption and the deacetylation of lysine within instrumental limits. The addition of an HDAC inhibitor gives rise to a lower deacetylation of the Color de Lys® substrate and to a decrease in the intensity at 405 nm.
The operating procedure was the following: • 1. The buffer, diluted (250 nM) TSA (Trichostatin A) and the inhibitor to be assayed were added at the desired concentrations in the suitable wells of the plate (See Table below). • 2. The Hela extract was added, except to the enzyme-free control. • 3. The plate and the Color de Lys® substrate were thermostatted at 37° C. • 4. The reactions were started adding the 0.4 mM substrate (final concentration of the substrate 0.2 mM) in each well and it was stirred. • 5. A reaction time of 20 minutes at 37° C. was allowed. • 6. The Color de Lys® developer, prepared approximately 30 minutes before its use, was added (the developer was used diluted 20 times with an amount of TSA resulting in a final concentration of 1 μM in the assay). It was allowed to react for 15 minutes at 37° C. • 7. The reading was made at 405 nm.
(×5) and (×2) indicate the dilution factors.
The result of the reading using 5 different concentrations taken between 0.1-2.0 mM of each inhibitor allowed obtaining a straight line of concentrations versus enzymatic activity. The concentration necessary to deduce the 50% enzymatic activity (IC50) was calculated from the equation of said line.
In general, pIC50 refers to the IC50 on a negative log10 scale, so that one unit is a factor of ten. Low values mean a high IC50, high ones a low IC50. Turning to `O=C(CCCCCCN1C(=O)c2ccccc2S1(=O)=O)NO` [Compound 2, 7-(1,1-dioxide-3-oxo-2H-benzo[d]isothiazol-2-yl)-N-hydroxyheptanamide], the pIC50 was 6.60.

On to `O=C(CCCCCOc1nsc2ccccc12)NO` [Compound 5, 6-[(benzo[d]isothiazol-3-yl)oxa]-N-hydroxyhexanamide], for which the pIC50 was 6.68.

With `O=C(NO)c1ccc(CN2C(=O)c3ccccc3S2(=O)=O)cc1` [Compound 3, 4-[(1,1-dioxide-3-oxo-2H-benzo[d]isothiazol-2-yl)methyl]-N-hydroxybenzamide], the negative logarithm of the IC50 (pIC50) was 5.94. Against the preceding molecule, the pIC50 is 0.74 log units lower.

Molecule `O=C(CCCCCN1C(=O)c2ccccc2S1(=O)=O)NO` [Compound 1, 6-(1,1-dioxide-3-oxo-2H-benzo[d]isothiazol-2-yl)-N-hydroxyhexanamide] had a pIC50 of 5.82.

Values taken from patent publication US20090312377A1, “DERIVATIVES OF BENZO[D]ISOTHIAZOLES AS HISTONES DEACETYLASE INHIBITORS” (UNIVERSIDAD DE GRANADA, priority 2006, published 2009).
